# According to article PMC11999280, “Design and screening of novel endosomal escape compounds that enhance functional delivery of oligonucleotides in vitro” (Molecular Therapy. Nucleic Acids, 2025):
# What was measured:
# Format in all cases: cell-based
# [1] = system: mCherry-GAL9 expressing SHSY5Y cells; test: GAL9 recruitment assay, SHSY5Y; conditions: calculated mean from >3 independent exp.
# In short: (§1)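 Stable mCherry-GAL9 lines; 24 h post-seeding, compound dosed as dose-response. Endpoint: PBS wash, 4% PFA fix (RT), Hoechst 33342 1 μg/mL. Confocal imaging ×20w, GAL9 puncta quantified. N = 3, duplicate wells.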
# [2] = system: mCherry-GAL9 expressing U2OS cells; test: GAL9 recruitment assay, U2OS; conditions: calculated mean from >3 independent exp.
# In short: as §1
# [3] = system: mCherry-GAL9 expressing HepG2 cells; test: GAL9 recruitment assay, HepG2; conditions: calculated mean from >3 independent exp.
# In short: as §1
# [4] = system: HeLa_Luc705 cells (pLuc/705 splice-switching reporter); test: Functional 705-SSO delivery, luciferase splice-switching assay; conditions: HeLa-Luc705 + 2 µM SSO; EEE 2.5 - 3 µM; mean from >3 independent experiments
# In short: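 Splice correction was measured as firefly luciferase luminescence in Triton X-100 lysates taken 24 h after enhancer treatment. Before treatment, the 10,000 cells/well had spent 24 h with 1–2 μM 705-SSO (2′-OMe, phosphorothioate). For comparison, 100–200 nM SSO was lipofected with LF2000.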
# [5] = system: mCherry-GAL9 expressing 16HBE cells; test: GAL9 recruitment assay, 16HBE; conditions: calculated mean from >3 independent exp.
# In short: as §1
# [6] = system: mCherry-GAL9 expressing HeLa cells; test: GAL9 recruitment assay, HeLa; conditions: calculated mean from >3 independent exp.
# In short: as §1
# [7] = system: mCherry-GAL9 expressing HuH7 cells; test: GAL9 recruitment assay, HuH7; conditions: calculated mean from >3 independent exp.
# In short: as §1
# [8] = system: mCherry-GAL9 expressing NCI-H358 cells; test: GAL9 recruitment assay, NCI-H358; conditions: calculated mean from >3 independent exp.
# In short: as §1
# [9] = system: mCherry-GAL9 expressing HEK293 cells; test: GAL9 recruitment assay, HEK293; conditions: calculated mean from >3 independent exp.
# In short: as §1
smiles,measurement,setting,value
COc1nn(C2CCN(C)CC2)cc1Nc1ncc(Cl)c(-n2ccc3c(C#N)cccc32)n1 [EEE17],Gal9 response compared to reference,[1]; EEE 0.31 µM,0.014
same,Gal9 response compared to reference,[1]; EEE 0.62 µM,0.013
same,Gal9 response compared to reference,[1]; EEE 1.25 µM,0.012
same,Gal9 response compared to reference,[1]; EEE 2.5 µM,0.014
same,Gal9 response compared to reference,[1]; EEE 5 µM,0.176
same,Gal9 response compared to reference,[1]; EEE 10 µM,0.610
same,Gal9 response compared to reference,[2]; EEE 0.31 µM,0.012
same,Gal9 response compared to reference,[2]; EEE 0.62 µM,0.011
same,Gal9 response compared to reference,[2]; EEE 1.25 µM,0.013
same,Gal9 response compared to reference,[2]; EEE 2.5 µM,0.015
same,Gal9 response compared to reference,[2]; EEE 5 µM,0.021
same,Gal9 response compared to reference,[2]; EEE 10 µM,0.155
same,Gal9 response compared to reference,[3]; EEE 0.31 µM,0.009
same,Gal9 response compared to reference,[3]; EEE 0.62 µM,0.008
same,Gal9 response compared to reference,[3]; EEE 1.25 µM,0.008
same,Gal9 response compared to reference,[3]; EEE 2.5 µM,0.011
same,Gal9 response compared to reference,[3]; EEE 5 µM,0.010
same,Gal9 response compared to reference,[3]; EEE 10 µM,0.030
same,Luciferase expression compared to reference,[4],0.752
same,Gal9 response compared to reference,[5]; EEE 0.31 µM,0.008
same,Gal9 response compared to reference,[5]; EEE 0.62 µM,0.010
same,Gal9 response compared to reference,[5]; EEE 1.25 µM,0.008
same,Gal9 response compared to reference,[5]; EEE 2.5 µM,0.010
same,Gal9 response compared to reference,[5]; EEE 5 µM,0.048
same,Gal9 response compared to reference,[5]; EEE 10 µM,0.488
same,Gal9 response compared to reference,[6]; EEE 0.31 µM,0.005
same,Gal9 response compared to reference,[6]; EEE 0.62 µM,0.004
same,Gal9 response compared to reference,[6]; EEE 1.25 µM,0.004
same,Gal9 response compared to reference,[6]; EEE 2.5 µM,0.004
same,Gal9 response compared to reference,[6]; EEE 5 µM,0.012
same,Gal9 response compared to reference,[6]; EEE 10 µM,0.201
same,Gal9 response compared to reference,[7]; EEE 0.31 µM,0.007
same,Gal9 response compared to reference,[7]; EEE 0.62 µM,0.007
same,Gal9 response compared to reference,[7]; EEE 1.25 µM,0.010
same,Gal9 response compared to reference,[7]; EEE 2.5 µM,0.017
same,Gal9 response compared to reference,[7]; EEE 5 µM,0.021
same,Gal9 response compared to reference,[7]; EEE 10 µM,0.132
same,Gal9 response compared to reference,[8]; EEE 0.31 µM,0.016
same,Gal9 response compared to reference,[8]; EEE 0.62 µM,0.019
same,Gal9 response compared to reference,[8]; EEE 1.25 µM,0.014
same,Gal9 response compared to reference,[8]; EEE 2.5 µM,0.018
same,Gal9 response compared to reference,[8]; EEE 5 µM,0.028
same,Gal9 response compared to reference,[8]; EEE 10 µM,0.303
same,Gal9 response compared to reference,[9]; EEE 0.31 µM,0.023
same,Gal9 response compared to reference,[9]; EEE 0.62 µM,0.022
same,Gal9 response compared to reference,[9]; EEE 1.25 µM,0.019
same,Gal9 response compared to reference,[9]; EEE 2.5 µM,0.019
same,Gal9 response compared to reference,[9]; EEE 5 µM,0.096
same,Gal9 response compared to reference,[9]; EEE 10 µM,0.437
